The values that follow come from patent publication US20260132129A1 (Genesis Therapeutics, Inc., priority 2022, published 2026).

For this assay, the target named is T1, PI3Kα H1047R (T47D cells) (Homo sapiens, UniProt P42336, H1047R).
T1 construct: endogenous in cells; host or cells: T47D cells
As to the kind of experiment: PI3Kα cellular assay: pAKT HTRF in T47D cells after EGF stimulation. Type of assay: cell-based. As to conditions: for IC50: T47D cells (PI3Kα H1047R), pAKT S473 HTRF, EGF stimulation. A digest of the protocol: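 pAKT read by HTRF in lysates of EGF-stimulated (20 ng/mL, 10 min) T47D H1047R cells. Before stimulation, serum-starved cells (16 h) received compound for 1 h at 37 °C, dosed from 10,000 nM down to 0.5 nM in 3-fold steps.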

T1 sequence (P42336 whole entry H1047R): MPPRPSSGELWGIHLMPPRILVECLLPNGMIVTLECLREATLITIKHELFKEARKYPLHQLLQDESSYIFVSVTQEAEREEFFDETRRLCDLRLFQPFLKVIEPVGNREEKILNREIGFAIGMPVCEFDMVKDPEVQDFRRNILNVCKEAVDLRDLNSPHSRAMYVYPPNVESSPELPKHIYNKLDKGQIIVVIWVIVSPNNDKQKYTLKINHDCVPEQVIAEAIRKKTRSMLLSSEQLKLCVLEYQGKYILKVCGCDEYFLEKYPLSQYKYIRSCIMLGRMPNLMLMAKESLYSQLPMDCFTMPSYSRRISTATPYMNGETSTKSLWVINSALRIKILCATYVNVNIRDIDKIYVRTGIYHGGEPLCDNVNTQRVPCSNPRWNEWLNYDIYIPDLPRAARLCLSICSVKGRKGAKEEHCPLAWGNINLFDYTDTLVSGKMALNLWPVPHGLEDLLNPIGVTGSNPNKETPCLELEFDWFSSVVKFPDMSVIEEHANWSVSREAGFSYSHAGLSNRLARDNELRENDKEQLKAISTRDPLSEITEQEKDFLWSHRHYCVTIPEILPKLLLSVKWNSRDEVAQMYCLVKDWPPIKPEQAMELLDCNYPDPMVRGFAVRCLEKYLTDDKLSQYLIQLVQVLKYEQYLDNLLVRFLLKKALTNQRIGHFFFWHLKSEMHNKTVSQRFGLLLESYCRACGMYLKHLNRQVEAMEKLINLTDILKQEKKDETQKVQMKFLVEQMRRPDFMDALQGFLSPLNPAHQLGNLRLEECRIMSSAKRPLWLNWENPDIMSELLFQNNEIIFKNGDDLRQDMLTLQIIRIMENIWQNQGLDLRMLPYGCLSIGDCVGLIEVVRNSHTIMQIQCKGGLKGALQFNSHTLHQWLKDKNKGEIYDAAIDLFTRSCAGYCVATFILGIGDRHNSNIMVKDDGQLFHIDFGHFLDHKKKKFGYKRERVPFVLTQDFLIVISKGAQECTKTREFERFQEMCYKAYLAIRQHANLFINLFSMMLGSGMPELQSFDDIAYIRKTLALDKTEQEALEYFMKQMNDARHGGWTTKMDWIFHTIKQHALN
T1 sequence (P27986 whole entry partner): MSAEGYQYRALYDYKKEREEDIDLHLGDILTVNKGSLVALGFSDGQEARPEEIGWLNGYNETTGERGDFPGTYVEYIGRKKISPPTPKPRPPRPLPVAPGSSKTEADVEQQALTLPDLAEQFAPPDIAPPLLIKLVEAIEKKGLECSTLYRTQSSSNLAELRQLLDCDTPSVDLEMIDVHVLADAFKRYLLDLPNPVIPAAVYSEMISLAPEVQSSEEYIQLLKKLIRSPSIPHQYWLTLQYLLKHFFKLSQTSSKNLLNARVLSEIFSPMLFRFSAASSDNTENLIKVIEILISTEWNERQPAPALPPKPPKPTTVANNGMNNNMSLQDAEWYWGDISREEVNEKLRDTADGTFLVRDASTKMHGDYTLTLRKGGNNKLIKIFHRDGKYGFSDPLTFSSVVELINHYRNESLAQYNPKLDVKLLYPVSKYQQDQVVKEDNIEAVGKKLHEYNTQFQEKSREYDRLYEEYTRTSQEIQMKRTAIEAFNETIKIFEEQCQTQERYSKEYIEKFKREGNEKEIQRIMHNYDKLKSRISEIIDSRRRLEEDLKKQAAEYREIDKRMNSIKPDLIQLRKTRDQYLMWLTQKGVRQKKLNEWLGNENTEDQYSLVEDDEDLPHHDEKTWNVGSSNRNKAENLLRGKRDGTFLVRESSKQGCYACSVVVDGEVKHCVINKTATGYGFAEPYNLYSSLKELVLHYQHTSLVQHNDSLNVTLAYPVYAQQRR

With `Cc1cccc(-c2nc3c(C(C)Nc4ccccc4C(=O)CS(=O)(=O)N(C)C)cc(C)cn3c(=O)c2C)c1` (stereo not drawn) [Compound 1321], the “T47D pAKT S473 HTRF IC50 (H1047R): T47D (H1047R) selectivity over SKBR3 (WT)” value was “B (B denotes 20-fold≥value>5-fold)”. The same measure, in the same setting: for `Cc1cc(C(C)Nc2ccccc2C(=O)O)c2nc(C3=CCC(C4CN(C)C4)C=C3)c(C)c(=O)n2c1` (stereo not drawn) [Compound 1322] the value was “C (C denotes ≤5-fold)”. Regarding `Cc1cc([C@@H](C)Nc2ccccc2S(N)(=O)=O)c2nc(N3Cc4cccnc4C3)c(C)c(=O)n2c1` [Compound 1323], the IC50 is less than 100 nM and the “T47D pAKT S473 HTRF IC50 (H1047R): T47D (H1047R) selectivity over SKBR3 (WT)” value is “A (A denotes >20-fold)”.

Take `Cc1cc([C@H](C)Nc2ccccc2S(N)(=O)=O)c2nc(N3Cc4cccnc4C3)c(C)c(=O)n2c1` [Compound 1324]: the “T47D pAKT S473 HTRF IC50 (H1047R): T47D (H1047R) selectivity over SKBR3 (WT)” value is “A (A denotes >20-fold)”.

Turning to `CCc1ccn2c(=O)c(C)c(-c3cccc(F)c3)nc2c1[C@@H](C)Nc1ccccc1C(=O)O` [Compound 1325], the “T47D pAKT S473 HTRF IC50 (H1047R): T47D (H1047R) selectivity over SKBR3 (WT)” value is reported as “C (C denotes ≤5-fold)”. As for `CCc1ccn2c(=O)c(C)c(-c3cccc(F)c3)nc2c1[C@H](C)Nc1ccccc1C(=O)O` [Compound 1326], the IC50 is less than 100 nM and the “T47D pAKT S473 HTRF IC50 (H1047R): T47D (H1047R) selectivity over SKBR3 (WT)” value is given as “A (A denotes >20-fold)”. As to `Cc1cc([C@H](C)Nc2ccccc2S(=O)(=O)O)c2nc(-c3cccc(C4CC4)c3)cc(=O)n2c1` [Compound 1327], the “T47D pAKT S473 HTRF IC50 (H1047R): T47D (H1047R) selectivity over SKBR3 (WT)” value is on record as “B (B denotes 20-fold≥value>5-fold)”.

Consider `Cc1cc([C@@H](C)Nc2ccccc2C(=O)O)c2nc([C@H]3CCCC(CC(F)F)C3)c(C)c(=O)n2c1` (stereo partly drawn) [Compound 1329], for which the “T47D pAKT S473 HTRF IC50 (H1047R): T47D (H1047R) selectivity over SKBR3 (WT)” value is recorded as “A (A denotes >20-fold)”.

`Cc1cc([C@H](C)Nc2ccccc2C(=O)O)c2nc([C@H]3CCCC(CC(F)F)C3)c(C)c(=O)n2c1` (stereo partly drawn) [Compound 1331]: the “T47D pAKT S473 HTRF IC50 (H1047R): T47D (H1047R) selectivity over SKBR3 (WT)” value is recorded as “C (C denotes ≤5-fold)”. Same read-out and setting: for `CC(=O)N1CCC(Cc2ccc(-c3nc4c([C@H](C)Nc5ccccc5C(=O)O)cc(C)cn4c(=O)c3C)cc2F)CC1` [Compound 1334] the value was “B (B denotes 20-fold≥value>5-fold)”; for `Cc1cc(C(C)Nc2ccccc2C(=O)O)c2nc(-c3cnc(C4CCN(C(=O)C5CC5)CC4)nc3)c(C)c(=O)n2c1` (stereo not drawn) [Compound 1336], “C (C denotes ≤5-fold)”; for `Cc1cc(C(C)Oc2ccccc2C(=O)O)c2nc(-c3cccc(F)c3)c(C)c(=O)n2c1` (stereo not drawn) [Compound 1337], “C (C denotes ≤5-fold)”. The same measure, in the same setting: the entry for `Cc1cc([C@@H](C)Nc2ccccc2C(=O)O)c2nc(-c3ccc(C4CCCC(C)C4)cc3)c(C)c(=O)n2c1` (stereo partly drawn) [Compound 1338] is “C (C denotes ≤5-fold)”; for `Cc1cc([C@H](C)Nc2ccccc2C(=O)O)c2nc(-c3ccc(C4CCC(C)CC4)cc3)cc(=O)n2c1` (stereo partly drawn) [Compound 1341] it is “B (B denotes 20-fold≥value>5-fold)”.

In the case of `Cc1cc([C@@H](C)Nc2ccccc2C(=O)O)c2nc(-c3ccc(C4CN(C)C4)nc3)c(C)c(=O)n2c1` [Compound 1342], the “T47D pAKT S473 HTRF IC50 (H1047R): T47D (H1047R) selectivity over SKBR3 (WT)” value was “C (C denotes ≤5-fold)”. Still for that read-out and setting: for `Cc1cc([C@H](C)Nc2ccccc2C(=O)O)c2nc(-c3ccc(C4CN(C)C4)nc3)c(C)c(=O)n2c1` [Compound 1343] the value was “C (C denotes ≤5-fold)”; for `Cc1cc([C@@H](C)Nc2ccccc2S(N)(=O)=O)c2nc(-c3ccc(C4CCNCC4)nc3)c(C)c(=O)n2c1` [Compound 1344], “B (B denotes 20-fold≥value>5-fold)”; for `Cc1cc([C@H](C)Nc2ccccc2S(N)(=O)=O)c2nc(-c3ccc(C4CCNCC4)nc3)c(C)c(=O)n2c1` [Compound 1345], “C (C denotes ≤5-fold)”.

Consider `Cc1cc([C@@H](C)Nc2ccccc2C(=O)NS(=O)(=O)N(C)C)c2nc(-c3cccc(F)c3)c(C)c(=O)n2c1` [Compound 1346], for which the “T47D pAKT S473 HTRF IC50 (H1047R): T47D (H1047R) selectivity over SKBR3 (WT)” value is “C (C denotes ≤5-fold)”.

On to `Cc1cc([C@H](C)Nc2ccccc2C(=O)NS(=O)(=O)N(C)C)c2nc(-c3cccc(F)c3)c(C)c(=O)n2c1` [Compound 1347], for which the “T47D pAKT S473 HTRF IC50 (H1047R): T47D (H1047R) selectivity over SKBR3 (WT)” value is reported as “B (B denotes 20-fold≥value>5-fold)”. Consider `Cc1cn2c(=O)c(C)c(-c3cccc(F)c3)nc2c(C(C)Nc2ccccc2C(=O)O)c1C` (stereo not drawn) [Compound 1348], for which the IC50 is less than 100 nM and the “T47D pAKT S473 HTRF IC50 (H1047R): T47D (H1047R) selectivity over SKBR3 (WT)” value was “A (A denotes >20-fold)”.

On to `Cc1cc([C@H](C)Nc2ccccc2C(=O)NS(C)(=O)=O)c2cc(-c3cccc(F)c3)c(C)c(=O)n2c1` [Compound 1351], for which the “T47D pAKT S473 HTRF IC50 (H1047R): T47D (H1047R) selectivity over SKBR3 (WT)” value is listed as “C (C denotes ≤5-fold)”. `Cc1cc(C(C)Nc2ccccc2C(=O)O)c2nc(C3CCCOC3)c(C#N)c(=O)n2c1` (stereo not drawn) [Compound 1353]: the IC50 lay in the range of 100 to 500 nM and the “T47D pAKT S473 HTRF IC50 (H1047R): T47D (H1047R) selectivity over SKBR3 (WT)” value was “A (A denotes >20-fold)”. Take `Cc1cc([C@@H](C)Nc2ccccc2S(C)(=O)=O)c2nc(-c3ccc(C4CCC(C)CC4)cc3)c(C)c(=O)n2c1` (stereo partly drawn) [Compound 1354]: the “T47D pAKT S473 HTRF IC50 (H1047R): T47D (H1047R) selectivity over SKBR3 (WT)” value is “C (C denotes ≤5-fold)”. Same read-out and setting: for `Cc1cc(C(C)Nc2cccc3onc(O)c23)c2nc(-c3cccc(F)c3)c(C)c(=O)n2c1` (stereo not drawn) [Compound 1356] the value was “A (A denotes >20-fold)”; for `Cc1ccc(N[C@H](C)c2cc(C)cn3c(=O)c(C)c(-c4cccc(F)c4)nc23)c(C(=O)O)c1` [Compound 1357], “C (C denotes ≤5-fold)”. As to `Cc1cc([C@@H](C)Nc2ccccc2C(=O)O)c2cc([C@@H]3CCCOC3)c(C#N)c(=O)n2c1` [Compound 1361], the “T47D pAKT S473 HTRF IC50 (H1047R): T47D (H1047R) selectivity over SKBR3 (WT)” value is reported as “A (A denotes >20-fold)”. `Cc1cc([C@H](C)Nc2ccccc2C(=O)O)c2nc(C3CCCOC3)c(C#N)c(=O)n2c1` (stereo partly drawn) [Compound 1364]: the IC50 is greater than 2000 nM and the “T47D pAKT S473 HTRF IC50 (H1047R): T47D (H1047R) selectivity over SKBR3 (WT)” value was “C (C denotes ≤5-fold)”. The corresponding values for `Cc1cc(C(C)Nc2cccc3onc(O)c23)c2nc(-c3cccnc3)c(C)c(=O)n2c1` (stereo not drawn) [Compound 1365, 9-(1-((3-hydroxybenzo[d]isoxazol-4-yl)amino)ethyl)-3,7-dimethyl-2-(pyridin-3-yl)-4H-pyrido[1,2-a]pyrimidin-4-one] are 100 to 500 nM and “A (A denotes >20-fold)”. For `Cc1cc(C(C)Nc2ccccc2-c2cc(O)no2)c2nc(-c3cccc(F)c3)c(C)c(=O)n2c1` (stereo not drawn) [Compound 1367, 2-(3-fluorophenyl)-9-(1-((2-(3-hydroxyisoxazol-5-yl)phenyl)amino)ethyl)-3,7-dimethyl-4H-pyrido[1,2-a]pyrimidin-4-one] the same measures were 100 to 500 nM and “A (A denotes >20-fold)”. For `Cc1cc([C@@H](C)Nc2ccccc2-c2cc(O)no2)c2nc(-c3cccc(F)c3)c(C)c(=O)n2c1` [Compound 1368, (R)-2-(3-fluorophenyl)-9-(1-((2-(3-hydroxyisoxazol-5-yl)phenyl)amino)ethyl)-3,7-dimethyl-4H-pyrido[1,2-a]pyrimidin-4-one], the IC50 was greater than 2000 nM and the “T47D pAKT S473 HTRF IC50 (H1047R): T47D (H1047R) selectivity over SKBR3 (WT)” value is reported as “C (C denotes ≤5-fold)”.
